Assays:
[1] = molecular target: horse butyxylcholinesterase (Equus caballus, UniProt P81908); assay: biochemical
electric eel AChE = electric eel AChE (Electrophorus electricus, UniProt O42275); assay: biochemical
[2] = Solubility in water of isolated compounds

Chain of electric eel AChE (O42275 24-633): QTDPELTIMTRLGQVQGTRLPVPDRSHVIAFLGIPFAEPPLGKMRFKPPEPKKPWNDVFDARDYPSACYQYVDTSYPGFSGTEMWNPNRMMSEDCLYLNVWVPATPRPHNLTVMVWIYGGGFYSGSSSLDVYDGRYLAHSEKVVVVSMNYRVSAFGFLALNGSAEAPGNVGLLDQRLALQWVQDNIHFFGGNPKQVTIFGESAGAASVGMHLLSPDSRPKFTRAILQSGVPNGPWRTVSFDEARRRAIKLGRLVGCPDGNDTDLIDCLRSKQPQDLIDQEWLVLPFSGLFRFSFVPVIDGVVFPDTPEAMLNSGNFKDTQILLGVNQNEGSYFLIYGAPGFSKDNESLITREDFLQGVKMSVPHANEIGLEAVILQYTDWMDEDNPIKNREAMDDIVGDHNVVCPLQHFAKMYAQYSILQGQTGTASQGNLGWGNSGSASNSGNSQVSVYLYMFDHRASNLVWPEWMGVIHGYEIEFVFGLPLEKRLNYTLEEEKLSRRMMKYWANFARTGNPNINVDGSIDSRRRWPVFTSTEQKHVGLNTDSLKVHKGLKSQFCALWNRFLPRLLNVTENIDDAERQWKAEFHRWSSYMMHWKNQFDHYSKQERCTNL
Chain of horse butyxylcholinesterase (P81908 whole entry): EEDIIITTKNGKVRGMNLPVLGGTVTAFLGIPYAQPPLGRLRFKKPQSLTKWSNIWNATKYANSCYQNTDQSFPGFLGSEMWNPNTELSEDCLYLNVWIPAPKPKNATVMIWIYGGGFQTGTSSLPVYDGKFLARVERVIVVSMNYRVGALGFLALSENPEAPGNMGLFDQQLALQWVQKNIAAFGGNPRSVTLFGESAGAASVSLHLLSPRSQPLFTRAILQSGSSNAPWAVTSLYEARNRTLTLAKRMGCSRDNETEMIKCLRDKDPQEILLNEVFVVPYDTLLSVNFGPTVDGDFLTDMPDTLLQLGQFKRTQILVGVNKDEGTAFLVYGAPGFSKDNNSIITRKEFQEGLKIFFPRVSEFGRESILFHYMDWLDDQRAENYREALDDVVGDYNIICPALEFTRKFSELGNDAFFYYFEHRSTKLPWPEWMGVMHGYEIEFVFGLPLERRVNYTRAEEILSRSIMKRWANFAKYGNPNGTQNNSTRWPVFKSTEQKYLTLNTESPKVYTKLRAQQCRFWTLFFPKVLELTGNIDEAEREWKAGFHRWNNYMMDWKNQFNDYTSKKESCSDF

C=C(C)[C@@H]1CC[C@]2(CO)CC[C@]3(C)[C@H](CC[C@@H]4[C@@]5(C)CC[C@H](O)C(C)(C)[C@@H]5CC[C@]43C)[C@@H]12 [Compound 1, betulin]
IC50 [1]: 10.5 µM | IC50 (electric eel AChE): 1.99 µM

CC(C)[C@H](C)CC[C@@H](C)[C@H]1CC[C@H]2[C@@H]3CC=C4C[C@@H](O)CC[C@]4(C)[C@H]3CC[C@]12C [Compound 2, campesterol]
IC50 [1]: 10.2 µM | IC50 (electric eel AChE): 4.72 µM | Solubility in water [2]: Soluble

From paper PMC5546590 (Biologics : Targets & Therapy, 2017)
